Results: US10647675B2 (priority 2015, dated 2020)
In brackets after ≈: the same amount, converted by molar mass.

How the values were obtained:
[1] = system: Trichophyton mentagrophytes SM-110; assay: Antifungal activity evaluation test: minimum inhibitory concentration (MIC), broth dilution by reference to CLSI M38-A2; type: cell-based; conditions: SM110, read-out: MIC (T. menta.)
Method in brief: (§1)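 Broth microdilution after CLSI M38-A2: 2-fold DMSO dilution series in MOPS-buffered RPMI 1640 pH 7.0, inoculum 2×10^3 cells/mL final. Incubated 35° C for 4 days; MIC (μg/mL) is lowest concentration giving visually ≥80% growth inhibition versus growth control.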

[2] = system: Trichophyton rubrum KD-1130; assay: as above; type: cell-based; conditions: KD1130, read-out: MIC (T. rubrum)
Method in brief: as §1

SMILES | MIC [1] | MIC [2]
COc1ncccc1-c1cccnc1Oc1ccc(C(F)(F)CO)nc1 [I-347] | 1.56 to 6.25 µg/mL (≈ 4.34 to 17.4 µM) | 1.56 to 6.25 µg/mL (≈ 4.34 to 17.4 µM)
COc1ccccc1-c1cncnc1Oc1ccc(C(F)(F)F)nc1 [I-310, 5-(2-methoxyphenyl)-4-{[6-(trifluoromethyl)pyridin-3-yl]oxy}pyrimidine] | ≤ 0.1 µg/mL | ≤ 0.1 µg/mL
COc1ccncc1-c1cccnc1Oc1ccc2c(c1)CCC2 [I-266, 2-[(2,3-dihydro-1H-inden-5-yl)oxy]-4′-methoxy-3,3′-bipyridine] | ≤ 0.1 µg/mL | ≤ 0.1 µg/mL
COc1ccncc1-c1cccnc1Oc1ccc(C2CC2)cc1 [I-261, 2-(4-cyclopropylphenoxy)-4′-methoxy-3,3′-bipyridine] | ≤ 0.1 µg/mL | ≤ 0.1 µg/mL
Fc1cccc(F)c1-c1cccnc1Oc1ccc(C(F)(F)F)nc1 [I-6, 3-(2,6-difluorophenyl)-2-{[6-(trifluoromethyl)pyridin-3-yl]oxy}pyridine] | ≤ 0.1 µg/mL | ≤ 0.1 µg/mL
CCOCC(F)(F)c1ccc(Oc2ncccc2-c2ccc(F)cc2OC)cn1 [I-155, 2-{[6-(2-ethoxy-1,1-difluoroethyl)pyridin-3-yl]oxy}-3-(4-fluoro-2-methoxyphenyl)pyridine] | ≤ 0.1 µg/mL | ≤ 0.1 µg/mL
COc1c(Cl)cncc1-c1cccnc1Oc1ccc(C(F)F)cc1 [I-355, 5′-chloro-2-[4-(difluoromethyl)phenoxy]-4′-methoxy-3,3′-bipyridine] | ≤ 0.1 µg/mL | ≤ 0.1 µg/mL
CC(F)(F)c1ccc(Oc2ncccc2-c2cccc3nccnc23)cn1 [I-110, 5-(2-{[6-(1,1-difluoroethyl)pyridin-3-yl]oxy}pyridin-3-yl)quinoxaline] | ≤ 0.1 µg/mL | 0.2 to 0.78 µg/mL (≈ 0.549 to 2.14 µM)
CCn1cc(CCc2ccc(Oc3ncccc3-c3cccnc3OC)cc2)cn1 [I-404, 2-{4-[2-(1-ethyl-1H-pyrazol-4-yl)ethyl]phenoxy}-2′-methoxy-3,3′-bipyridine] | ≤ 0.1 µg/mL | ≤ 0.1 µg/mL
COc1ccccc1-c1cccnc1Oc1cnc2c(c1)CCCC2OC(C)=O (centres unmarked) [I-139, 3-{[3-(2-methoxyphenyl)pyridin-2-yl]oxy}-5,6,7,8-tetrahydroquinolin-8-yl acetate] | 1.56 to 6.25 µg/mL | 1.56 to 6.25 µg/mL
FC(F)(F)c1ccc(Oc2ncccc2-c2cccc3cc[nH]c23)cn1 [I-42, 7-(2-{[6-(trifluoromethyl)pyridin-3-yl]oxy}pyridin-3-yl)-1H-indole] | 0.2 to 0.78 µg/mL (≈ 0.563 to 2.2 µM) | 0.2 to 0.78 µg/mL (≈ 0.563 to 2.2 µM)
CC(=O)CC(=O)c1ccc(Oc2ncccc2-c2cnccc2C)cc1 [I-424] | 0.2 to 0.78 µg/mL (≈ 0.577 to 2.25 µM) | ≤ 0.1 µg/mL
COc1ccncc1-c1cccnc1Oc1cnc(C2CC2)c(Cl)c1 [I-132, 2-[(5-chloro-6-cyclopropylpyridin-3-yl)oxy]-4′-methoxy-3,3′-bipyridine] | 0.2 to 0.78 µg/mL (≈ 0.565 to 2.2 µM) | 1.56 to 6.25 µg/mL (≈ 4.41 to 17.7 µM)
COc1ccccc1-c1cccnc1Oc1ccc(C(F)F)cc1 [I-444] | ≤ 0.1 µg/mL | ≤ 0.1 µg/mL
Cc1nsc(C)c1-c1cccnc1Oc1ccc(C(C)(F)F)nc1 [I-101, 4-(2-{[6-(1,1-difluoroethyl)pyridin-3-yl]oxy}pyridin-3-yl)-3,5′-dimethylisothiazole] | 0.2 to 0.78 µg/mL (≈ 0.576 to 2.25 µM) | 0.2 to 0.78 µg/mL (≈ 0.576 to 2.25 µM)
COc1ncncc1-c1cccnc1Oc1ccc(C(F)(F)F)cc1 [I-219, 4-methoxy-5-{2-[4-(trifluoromethyl)phenoxy]pyridin-3-yl}pyrimidine] | ≤ 0.1 µg/mL | ≤ 0.1 µg/mL
Cc1cc(Oc2ncccc2-c2cccc3ccnn23)cnc1C(F)(F)F [I-461] | ≤ 0.1 µg/mL | ≤ 0.1 µg/mL
CCc1ccc(Oc2ncccc2-c2cccc3c2OCC3)cn1 [I-125] | ≤ 0.1 µg/mL | 0.2 to 0.78 µg/mL (≈ 0.628 to 2.45 µM)
COc1c(Cl)cncc1-c1cncnc1Oc1ccc(C(F)(F)F)cc1 [I-331, 5-(5-chloro-4-methoxypyridin-3-yl)-4-[4-(trifluoromethyl)phenoxy]pyrimidine] | ≤ 0.1 µg/mL | ≤ 0.1 µg/mL
CCc1ccc(Oc2ncccc2-c2cc3nccn3cc2C)cc1 [I-293, 7-[2-(4-ethylphenoxy)pyridin-3-yl]-6-methylimidazo[1,2-a]pyridine] | 1.56 to 6.25 µg/mL (≈ 4.74 to 19 µM) | 1.56 to 6.25 µg/mL (≈ 4.74 to 19 µM)
c1cnc(Oc2cnc3c(c2)CCCC3)c(-c2cccc3c2OCC3)c1 [I-137, 3-{[3-(2,3-dihydrobenzyofuran-7-yl)pyridin-2-yl]oxy}-5,6,7,8-tetrahydroquinoline] | ≤ 0.1 µg/mL | ≤ 0.1 µg/mL
COc1cc(F)ccc1-c1cccnc1Oc1cnc(C(F)(F)F)c(C)c1 [I-118, 5-{[3-(4-fluoro-2-methoxyphenyl)pyridin-2-yl]oxy}-3-methyl-2-(trifluoromethyl)pyridine] | ≤ 0.1 µg/mL | ≤ 0.1 µg/mL
FC(F)(F)c1ccc(Oc2ncncc2-c2cccc3c2OCC3)cn1 [I-327, 5-(2,3-dihydrobenzofuran-7-yl)-4-{[6-(trifluoromethyl)pyridin-3-yl]oxy}pyrimidine] | ≤ 0.1 µg/mL | ≤ 0.1 µg/mL
FC(F)(F)c1ccc(Oc2ncccc2-c2cnn3ccccc23)cn1 [I-49, 3-(2-{[6-(trifluoromethyl)pyridin-3-yl]oxy}pyridin-3-yl)-pyrazolo[1,5-a]pryidine] | 1.56 to 6.25 µg/mL (≈ 4.38 to 17.5 µM) | 1.56 to 6.25 µg/mL (≈ 4.38 to 17.5 µM)
COc1ccc(Oc2ncccc2-c2cnccc2OC)cc1 [I-242, 4′-methoxy-2-(4-methoxyphenoxy)-3,3′-bipyridine] | 0.2 to 0.78 µg/mL (≈ 0.649 to 2.53 µM) | 1.56 to 6.25 µg/mL (≈ 5.06 to 20.3 µM)

SMILES | MIC [1] | MIC [2]
COc1ccc(F)cc1-c1cccnc1Oc1ccc(C(C)(F)F)nc1 [I-83, 2-{[6-(1,1-difluoroethyl)pyridin-3-yl]oxy}-3-(5-fluoro-2-methoxyphenyl)pyridine] | ≤ 0.1 µg/mL | ≤ 0.1 µg/mL
COc1ccccc1-c1cccnc1Oc1ccc(OC(F)F)nc1 [I-370, 2-{[6-(difluoromethoxy)pyridin-3-yl]oxy}-3-(2-methoxyphenyl)pyridine] | ≤ 0.1 µg/mL | ≤ 0.1 µg/mL
CSc1ccccc1-c1cccnc1Oc1ccc(C(F)(F)F)nc1 [I-14] | ≤ 0.1 µg/mL | ≤ 0.1 µg/mL
COCc1ccccc1-c1cccnc1Oc1ccc(C(F)(F)F)nc1 [I-60] | 0.2 to 0.78 µg/mL (≈ 0.555 to 2.16 µM) | 0.2 to 0.78 µg/mL (≈ 0.555 to 2.16 µM)
COc1ncccc1-c1cccnc1Oc1ccc(CCOC(=O)N(C)C)cc1 [I-398, 4-{[(2′-methoxy-(3,3′-bipyridin)-2-yl]oxy}phenethyl dimethylcarbamate] | ≤ 0.1 µg/mL | ≤ 0.1 µg/mL
COc1cc(F)ccc1-c1cccnc1Oc1ccc(Cl)nc1 [I-366] | ≤ 0.1 µg/mL | ≤ 0.1 µg/mL
FC(F)(F)c1ccc(Oc2ncccc2-c2cncc3nccnc23)cc1 [I-227, 8-{2-[4-(trifluoromethyl)phenoxy]pyridin-3-yl}pyrido[3,4-b]pyrazine] | ≤ 0.1 µg/mL | ≤ 0.1 µg/mL
CCc1ccccc1-c1cccnc1Oc1ccc(C(F)(F)F)nc1 [I-16, 3-(2-ethylphenyl)-2-{[6-(trifluoromethyl)pyridin-3-yl]oxy}pyridine] | ≤ 0.1 µg/mL | ≤ 0.1 µg/mL
Clc1ccc(Oc2nccnc2-c2cccc3ccccc23)cc1 [I-314, 2-(4-chlorophenoxy)-3-(naphthalen-1-yl)pyrazine] | 0.2 to 0.78 µg/mL (≈ 0.601 to 2.34 µM) | ≤ 0.1 µg/mL
COc1ncccc1-c1cccnc1Oc1ccc(OCc2ccccc2)nc1 [I-176, 2-{[6-(benzyloxy)pyridin-3-yl]oxy}-2′-methoxy-3,3′-bipyridine] | ≤ 0.1 µg/mL | ≤ 0.1 µg/mL
COc1ccccc1-c1cccnc1Oc1ccc(C=O)nc1 [I-71, 5-{[3-(2-methoxyphenyl)pyridin-2-yl]oxy}picolinaldehyde] | 1.56 to 6.25 µg/mL (≈ 5.09 to 20.4 µM) | 1.56 to 6.25 µg/mL (≈ 5.09 to 20.4 µM)
COc1ccccc1-c1cccnc1Oc1cnc(C(F)(F)F)nc1 [I-178] | ≤ 0.1 µg/mL | ≤ 0.1 µg/mL
COc1cc(F)ccc1-c1cccnc1Oc1cnc(N(C)Cc2nccs2)nc1 [I-194, 5-{[3-(4-fluoro-2-methoxyphenyl)pyridin-2-yl]oxy}-N-methyl-N-(thiazol-2-ylmethyl)pyrimidin-2-amine] | ≤ 0.1 µg/mL | 0.2 to 0.78 µg/mL (≈ 0.472 to 1.84 µM)
COc1ncccc1-c1cccnc1Oc1ccc(OCc2ccccc2)cc1 [I-277, 2-[4-(benzyloxy)phenoxy]-2′-methoxy-3,3′-bipyridine] | ≤ 0.1 µg/mL | ≤ 0.1 µg/mL
COc1cc(F)ccc1-c1cccnc1Oc1cnc(N(C)C)c(C)c1 [I-369] | ≤ 0.1 µg/mL | ≤ 0.1 µg/mL
COCC(F)(F)c1ccc(Oc2ncncc2-c2cccnc2OC)cn1 [I-361, 4-{[6-(1,1-difluoro-2-methoxyethyl)pyridin-3-yl]oxy}-5-(2-methoxypyridin-3-yl)pyrimidine] | 0.2 to 0.78 µg/mL (≈ 0.534 to 2.08 µM) | 0.2 to 0.78 µg/mL (≈ 0.534 to 2.08 µM)
COc1c(Cl)cncc1-c1cccnc1Oc1ccc(C(F)(F)F)cc1 [I-211, 5′-chloro-4′-methoxy-2-[4-(trifluoromethyl)phenoxy]-3,3′-bipyridine] | ≤ 0.1 µg/mL | ≤ 0.1 µg/mL
Cc1c(F)cncc1-c1cccnc1Oc1ccc(C(C)(F)F)nc1 [I-99, 2-{[6-(1,1-difluoroethyl)pyridin-3-yl]oxy}-5′-fluoro-4′-methyl-3,3′-bipyridine] | 0.2 to 0.78 µg/mL (≈ 0.579 to 2.26 µM) | 0.2 to 0.78 µg/mL (≈ 0.579 to 2.26 µM)
CC(=O)c1ccccc1-c1cccnc1Oc1ccc(C(F)(F)F)nc1 [I-19, 1-[2-(2-{[6-(trifluoromethyl)pyridin-3-yl]oxy}pyridin-3-yl)phenyl]ethanone] | 1.56 to 6.25 µg/mL (≈ 4.35 to 17.4 µM) | 1.56 to 6.25 µg/mL (≈ 4.35 to 17.4 µM)
COc1ncccc1-c1cccnc1Oc1cnc(N(C)Cc2ccccc2)nc1 [I-381, N-benzyl-5-{[2′-methoxy-(3,3′-bipyridin)-2-yl]oxy}-N-methylpyrimidin-2-amine] | ≤ 0.1 µg/mL | ≤ 0.1 µg/mL
COc1ccc(OC)c(-c2cccnc2Oc2ccc(C(C)(F)F)nc2)n1 [I-96, 2′-{[6-(1,1-difluoroethyl)pyridin-3-yl]oxy}-3,6-dimethoxy-2,3′-bipyridine] | ≤ 0.1 µg/mL | ≤ 0.1 µg/mL
C=Cc1ccc(Oc2ncccc2-c2cnccc2OC)cc1 [I-258, 4′-methoxy-2-(4-vinylphenoxy)-3,3′-bipyridine] | ≤ 0.1 µg/mL | ≤ 0.1 µg/mL
COc1cc(-c2cccnc2Oc2ccc(C(C)(F)F)nc2)c(F)cc1F [I-85] | ≤ 0.1 µg/mL | ≤ 0.1 µg/mL
COc1ccncc1-c1cccnc1Oc1ccc(C(F)(F)F)cc1 [I-210, 4′-methoxy-2-[4-(trifluoromethyl)phenoxy]-3,3′-bipyridine] | ≤ 0.1 µg/mL | ≤ 0.1 µg/mL
